The source of these data is patent US12391768B2, “Antibodies to ticagrelor and methods of use” (MEDIMMUNE LIMITED, priority 2014, dated 2025).

As a reminder, the IC50 is the concentration that gives 50% inhibition.

One series deals with mouse tail bleeding. Kind of series: Prophylactic mouse tail bleeding study. The class given is in vivo, mice. How it is done:
(§1) Mice were pre-treated with a continuous infusion of ticagrelor, 300 μg/kg/min or vehicle for 20 minutes. After stop of infusion, t=0, a bolus dose of TICA0212/MEDI2452 (600 mg/kg) or vehicle (histidine sucrose buffer) was given over 45 seconds and at t=30 minutes bleeding was induced by cutting 5mm from the tip of the tail. The tip of the tail was rinsed with water (2 mL/min) and the blood and water mixture was collected in a small chamber, where a stirrer mixed the fluid to enhance haemolysis and establish a homogeneous solution. Light transmission, at 525 nm, was recorded for 30 minutes when terminal blood samples were collected from the abdominal aorta for platelet aggregation. Light transmittance was transformed to absorbance and used to calculate blood loss as area under the absorbance curve (AUC, absorbance*s) and total bleeding time (BT, s) by plotting absorbance over time. All transmittance below 95% was defined as bleeding. Samples for platelet aggregation and total and free plasma exposure were also collected at end of ticagrelor infusion (t=0) and at time of tail cut (t=30 minutes).
Studies were approved by the ethical committee for animal research at the University of Göteborg, Sweden. Mice were anaesthetised with isofluran gas (Forenc®, Abbot Scandinavia AB, Sweden). A catheter was inserted in the left jugular vein for administration of vehicle or drug. The body temperature was maintained at 38° C. by external heating.
To translate the effect of TICA0212/MED12452 on platelet aggregation to a potential effect on bleeding, a prophylactic mouse tail bleeding study was performed. Ticagrelor was infused to a mean total ticagrelor and TAM plasma concentration of 7.6 and 0.3 μM, respectively, to provide a significant drug-dependant bleeding window. Immediately after stopping the ticagrelor infusion TICA0212/MEDI2452 was dosed as a single bolus of 600 mg/kg over 30 seconds. […] Bleeding was initiated by a tail cut and monitored for 30 minutes. In vehicle treated mice the mean total ticagrelor and TAM plasma concentration at time of tail cut were 2.4 and 0.6 μM. […] In this prophylactic setting TICA0212/MED12452 normalized ticagrelor dependent bleeding.

A further series deals with TICA0212 Fab. Nature of the series: HTRF competition binding selectivity assay, TICA0212 His-Fab. Details: species or system human. The conditions noted are these: Table 7, DMSO normalised; 5 nM biotinylated ticagrelor, 1 nM His Fab; read-out: IC50 (uM) for inhibition of biotinylated ticagrelor binding to TICA0212 Fab. The protocol: Total Binding control wells were set up which contained all of the assay components above except that 5 ul assay buffer was added in place of the test selectivity compound addition. Negative Binding control wells were set up which contained all of the assay components included in the Total Binding control wells except that 5ul assay buffer was added in place of the His-Fab addition. Test compound serial titrations were either ½ or ⅓ depending on the particular experiment and top final assay compound concentrations were optimized on a compound specific basis. The concentration of biotinylated ticagrelor and His-Fab was optimized on a Fab specific basis in separate experiments. For the four Fabs investigated at the end of the lead isolation phase (TICA0010, TICA0049, TICA0053 and TICA0072) the final assay reagent concentrations used are set out in Table 1 below:
For the two Fabs investigated at the end of the lead optimization phase (TICA0162 and TICA0212) the final assay reagent concentrations used were 5nM biotinylated ticagrelor and 1 nM His Fab in both cases. […] At the end of the set up procedure that assay was incubated for 3hrs at RT before being read on an Envision plate reader using a standard read protocol. […]

The test system of series [1] is ADP-induced platelet aggregation in whole blood. Nature of the series: Ex vivo whole blood impedance aggregometry after i.v. dosing of ticagrelor treated mice. The class given is in vivo. Particulars: for mean ADP-induced aggregation response: n=4. How it is done:
The speed of onset and the extent of TICA0212/MEDI2452 mediated reversal of ticagrelor mediated inhibition of ADP-induced platelet aggregation in whole blood (impedance aggregometry) was determined ex vivo after intravenous (i.v.) dosing of ticagrelor in mice. Mice were given ticagrelor i.v. as a bolus of 1200 μg/kg. over 5 minutes, followed by a 15 min continuous infusion of 30 μg/kg/min. After termination of the ticagrelor infusion, when ticagrelor plasma exposure was measured to be in average 1.4 μM, mice were given an i.v. bolus of 250 mg/kg TICA0212/MEDI2452. At 5, 30, and 60 min post TICA0212/MEDI2452 administration mice were sacrificed and blood samples were collected. In this study the ADP-induced aggregation response was measured for 6 min and data expressed as the mean area under the curve of aggregation unit (AU) recorded over time (AU*min).
In carrying out the impedance aggregometry assay, mice were sacrificed and blood samples were collected into 7 μM hirudin. Blood (175 μL) was added to pre-heated […] (37° C., 175 μL) in the Multiplate mini test cells and mixed for 3 min before addition of ADP, 12 μL, to a final concentration of 6.5 μM. The disposable Multiplate mini test cells contain a stir bar and have two separate pair of electrodes that are immersed into the blood sample.
When agonist (ADP) is added and shear is induced by stirring, platelets will start to adhere and aggregate onto the electrodes.
as §1

The mark [2] stands for this setting: ticagrelor versus vehicle, p<0.05.
Where [3] appears, read: 5 min after ticagrelor infusion (1200 μg/kg bolus + 30 μg/kg/min) and bolus (PBS or 250 mg/kg Fab i.v.).
[4] abbreviates: 30 min after ticagrelor infusion (1200 μg/kg bolus + 30 μg/kg/min) and bolus (PBS or 250 mg/kg Fab i.v.).
Setting [5] is: 60 min after ticagrelor infusion (1200 μg/kg bolus + 30 μg/kg/min) and bolus (PBS or 250 mg/kg Fab i.v.).
The mark [6] stands for this setting: 600 mg/kg bolus 30 min before tail cut, n=12.

For the molecule `CCCSc1nc(N[C@@H]2C[C@H]2c2ccc(F)c(F)c2)c2nnn([C@@H]3C[C@H](OCCO)[C@@H](O)[C@H]3O)c2n1` [Ticagrelor, (1S,2S,3R,5S)-3-[7-{[(1R,2S)-2-(3,4-difluorophenyl)cyclopropyl]amino}-5-(propylthio)-3H-[1,2,3]triazolo[4,5-d]pyrimidin-3-yl]-5-(2-hydroxyethoxy)cyclopentane-1,2-diol], the “bleeding time over 30 minutes, enhancement” value with mouse tail bleeding (setting [2]) was around 1.6 fold. Moreover, the “total blood loss over 30 minutes, enhancement” value in the series with mouse tail bleeding (setting [2]) is recorded as “about 3.8 fold”. At TICA0212 Fab, the IC50 turned out to be 0.035 µM. Moreover, the “mean ADP-induced aggregation response” value in series [1] (setting [3]) was 2 AU*min; in series [1] (setting [4]), 6 AU*min; in series [1] (setting [5]), 14 AU*min.

B1: TICA0212: combination of TICA0162 and TICA0152; VH SEQ ID NO:72, VL SEQ ID NO:77 (antibody, listed as Homo sapiens, V domains shown)
VH: QVQLQESGAEVKKPGSSVRVSCKASGGTFDSYSIHWVRQAPGQGLEWMGGIIPAFGTLSSAQDFQARVTISADKSTSTAYMELSGLRSEDTAVYYCARGSFDYYFWSASHPPNDALAIWGQGTLVTVSS
VL: QSVVTQPPSVSAAPGQKVTISCSGSNSDIGNNYVSWYQQLPGTAPKLLIYDNNKRPSGIPDRFSGSKSGTSATLAITGLQAGDEADYYCGTWLYDRAVGLFGGGTKVTVL
B1: the “bleeding time relative ticagrelor alone” value in the series with mouse tail bleeding (setting [6]) is “significantly (p<0.05) reversed”. Also, in the series on mouse tail bleeding (setting [6]), the “blood loss relative ticagrelor alone” value was “significantly (p<0.05) reversed”. Further, the “mean ADP-induced aggregation response” value turned out to be 147 AU*min in series [1] (setting [3]), 448 AU*min in series [1] (setting [4]) and 413 AU*min in series [1] (setting [5]). Besides, the ADP-induced aggregation result in series [1] (Example 12, 30 minutes after single bolus of 600 mg/kg, ticagrelor 300 μg/kg/min for 20 min) is “fully normalized”.
